# From ChEMBL document CHEMBL6153089, “Design, Synthesis, and Biological Evaluation of Thieno[3,2-d]pyrimidine Derivatives as the First Bifunctional PI3Kδ Isoform Selective/Bromodomain and Extra-Terminal Inhibitors” (J Med Chem, 2025)
# The source made the active and inactive calls. The rule behind the calls is not given here.
# Experiments:
# [1] = molecular target: T1, Bromodomain-containing protein 4 (Homo sapiens, UniProt O60885); assay: Inhibition of His-tagged BRD4-BD1 (unknown origin) at 10 nM incubated for 30 mins by Alphascreen assay relative to control
# [2] = molecular target: PI3-kinase p110-delta/p85-alpha (Homo sapiens, UniProt O00329); assay: Inhibition of p110delta/p85alpha (unknown origin) incubated for 2 hrs in presence of ATP by ADP-kinaseGlo reagent based assay; assay type: protein-complex assay
# PI3-kinase p110-delta/p85-alpha, sequence (P27986 whole entry): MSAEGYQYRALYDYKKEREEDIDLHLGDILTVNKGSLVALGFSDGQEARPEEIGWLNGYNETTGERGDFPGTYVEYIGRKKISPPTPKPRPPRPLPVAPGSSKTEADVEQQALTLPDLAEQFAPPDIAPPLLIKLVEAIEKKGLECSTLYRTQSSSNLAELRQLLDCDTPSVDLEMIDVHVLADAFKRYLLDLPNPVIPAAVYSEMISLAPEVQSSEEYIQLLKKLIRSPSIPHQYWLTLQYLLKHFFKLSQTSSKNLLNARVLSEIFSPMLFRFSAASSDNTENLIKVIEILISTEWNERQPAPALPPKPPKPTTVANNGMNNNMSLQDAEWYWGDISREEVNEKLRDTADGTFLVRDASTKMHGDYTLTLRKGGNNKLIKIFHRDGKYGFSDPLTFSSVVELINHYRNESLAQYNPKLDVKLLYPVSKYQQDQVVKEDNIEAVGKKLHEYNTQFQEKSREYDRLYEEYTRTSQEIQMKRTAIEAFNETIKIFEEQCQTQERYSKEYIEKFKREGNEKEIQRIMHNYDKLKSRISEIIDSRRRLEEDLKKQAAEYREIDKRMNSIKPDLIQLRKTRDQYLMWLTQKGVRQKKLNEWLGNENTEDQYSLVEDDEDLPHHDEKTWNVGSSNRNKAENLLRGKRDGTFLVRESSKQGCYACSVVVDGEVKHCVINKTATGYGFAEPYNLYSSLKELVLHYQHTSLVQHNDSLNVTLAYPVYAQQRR
# PI3-kinase p110-delta/p85-alpha, sequence (O00329 whole entry): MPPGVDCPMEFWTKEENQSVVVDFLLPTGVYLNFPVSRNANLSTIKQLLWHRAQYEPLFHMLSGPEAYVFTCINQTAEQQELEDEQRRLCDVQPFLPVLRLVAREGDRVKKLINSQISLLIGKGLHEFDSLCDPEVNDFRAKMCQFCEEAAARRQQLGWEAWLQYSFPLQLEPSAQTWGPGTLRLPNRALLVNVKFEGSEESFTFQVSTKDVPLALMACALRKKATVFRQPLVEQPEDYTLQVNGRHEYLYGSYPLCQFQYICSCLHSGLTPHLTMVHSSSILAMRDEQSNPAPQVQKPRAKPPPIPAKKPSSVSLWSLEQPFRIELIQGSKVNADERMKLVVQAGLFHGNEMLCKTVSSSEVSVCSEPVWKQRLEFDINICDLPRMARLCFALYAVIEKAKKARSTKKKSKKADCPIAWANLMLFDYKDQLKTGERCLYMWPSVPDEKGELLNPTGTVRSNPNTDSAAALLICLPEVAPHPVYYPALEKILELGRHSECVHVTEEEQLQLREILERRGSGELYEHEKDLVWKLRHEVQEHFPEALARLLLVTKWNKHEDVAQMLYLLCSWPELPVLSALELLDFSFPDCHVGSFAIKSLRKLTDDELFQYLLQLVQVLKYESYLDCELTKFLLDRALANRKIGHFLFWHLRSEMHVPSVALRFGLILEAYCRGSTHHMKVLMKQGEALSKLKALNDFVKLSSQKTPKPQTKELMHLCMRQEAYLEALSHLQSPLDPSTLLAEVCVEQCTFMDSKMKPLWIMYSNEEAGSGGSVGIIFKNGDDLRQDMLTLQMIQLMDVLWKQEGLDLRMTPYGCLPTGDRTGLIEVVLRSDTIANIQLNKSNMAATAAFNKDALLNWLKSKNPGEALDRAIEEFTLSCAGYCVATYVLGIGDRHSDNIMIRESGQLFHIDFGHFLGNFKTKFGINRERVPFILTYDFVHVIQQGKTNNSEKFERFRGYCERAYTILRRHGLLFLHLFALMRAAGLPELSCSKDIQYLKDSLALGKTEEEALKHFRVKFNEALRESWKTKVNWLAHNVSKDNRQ
# [3] = molecular target: T1, Bromodomain-containing protein 4; assay: Inhibition of His-tagged BRD4-BD1 (unknown origin) incubated for 30 mins in presence of ATP by Alphascreen assay
# [4] = test system: SU-DHL-6; assay: Antiproliferative against activity human SU-DHL-6 cells assessed as inhibition of cell growth incubated for 72 hrs by Celltiter-luminescence analysis; assay type: functional, cell-based; settings: SU-DHL-6, 72 h
# [5] = molecular target: Phosphatidylinositol 4,5-bisphosphate 3-kinase catalytic subunit beta isoform (Homo sapiens, UniProt P42338); assay: Inhibition of PI3Kbeta (unknown origin) incubated for 2 hrs in presence of ATP by ADP-kinaseGlo reagent based assay
# [6] = molecular target: Phosphatidylinositol 4,5-bisphosphate 3-kinase catalytic subunit gamma isoform (Homo sapiens, UniProt P48736); assay: Inhibition of PI3Kgamma (unknown origin) incubated for 2 hrs in presence of ATP by ADP-kinaseGlo reagent based assay
# Phosphatidylinositol 4,5-bisphosphate 3-kinase catalytic subunit gamma isoform, sequence (P48736 whole entry, canonical isoform): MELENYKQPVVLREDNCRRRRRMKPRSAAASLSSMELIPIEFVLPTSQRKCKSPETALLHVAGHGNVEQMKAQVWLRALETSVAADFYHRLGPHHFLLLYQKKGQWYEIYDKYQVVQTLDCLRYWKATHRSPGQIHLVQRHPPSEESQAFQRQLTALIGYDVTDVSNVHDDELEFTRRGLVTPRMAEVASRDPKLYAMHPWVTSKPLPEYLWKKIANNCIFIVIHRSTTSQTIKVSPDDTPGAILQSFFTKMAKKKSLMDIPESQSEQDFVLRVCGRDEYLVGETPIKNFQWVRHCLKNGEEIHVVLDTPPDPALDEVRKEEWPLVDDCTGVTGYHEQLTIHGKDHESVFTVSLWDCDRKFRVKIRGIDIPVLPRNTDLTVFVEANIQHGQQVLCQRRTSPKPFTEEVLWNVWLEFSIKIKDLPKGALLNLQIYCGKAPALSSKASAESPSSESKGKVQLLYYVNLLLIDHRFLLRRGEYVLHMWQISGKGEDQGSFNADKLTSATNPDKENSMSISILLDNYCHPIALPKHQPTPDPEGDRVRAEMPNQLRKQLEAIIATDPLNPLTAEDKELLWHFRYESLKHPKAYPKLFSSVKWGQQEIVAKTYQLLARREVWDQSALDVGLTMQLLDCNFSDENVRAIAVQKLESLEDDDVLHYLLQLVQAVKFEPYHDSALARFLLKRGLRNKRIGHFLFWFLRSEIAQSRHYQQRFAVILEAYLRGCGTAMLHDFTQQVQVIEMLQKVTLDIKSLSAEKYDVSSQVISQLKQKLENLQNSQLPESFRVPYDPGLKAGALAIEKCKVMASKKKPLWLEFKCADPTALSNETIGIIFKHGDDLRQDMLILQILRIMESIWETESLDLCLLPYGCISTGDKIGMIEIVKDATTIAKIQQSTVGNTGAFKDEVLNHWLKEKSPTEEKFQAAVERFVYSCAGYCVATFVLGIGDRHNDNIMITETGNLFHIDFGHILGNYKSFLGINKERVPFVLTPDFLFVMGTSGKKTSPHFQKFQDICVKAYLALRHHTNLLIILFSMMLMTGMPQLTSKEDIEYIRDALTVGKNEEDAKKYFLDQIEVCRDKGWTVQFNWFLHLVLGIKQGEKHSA
# [7] = molecular target: Serine/threonine-protein kinase mTOR (Homo sapiens, UniProt P42345); assay: Inhibition of mTOR (unknown origin) incubated for 2 hrs in presence of ATP by ADP-kinaseGlo reagent based assay
# [8] = molecular target: Bromodomain-containing protein 3 (Homo sapiens, UniProt Q15059); assay: Inhibition of His-tagged BRD3-BD1 (unknown origin) incubated for 30 mins in presence of ATP by Alphascreen assay
# Bromodomain-containing protein 3, sequence (Q15059 whole entry): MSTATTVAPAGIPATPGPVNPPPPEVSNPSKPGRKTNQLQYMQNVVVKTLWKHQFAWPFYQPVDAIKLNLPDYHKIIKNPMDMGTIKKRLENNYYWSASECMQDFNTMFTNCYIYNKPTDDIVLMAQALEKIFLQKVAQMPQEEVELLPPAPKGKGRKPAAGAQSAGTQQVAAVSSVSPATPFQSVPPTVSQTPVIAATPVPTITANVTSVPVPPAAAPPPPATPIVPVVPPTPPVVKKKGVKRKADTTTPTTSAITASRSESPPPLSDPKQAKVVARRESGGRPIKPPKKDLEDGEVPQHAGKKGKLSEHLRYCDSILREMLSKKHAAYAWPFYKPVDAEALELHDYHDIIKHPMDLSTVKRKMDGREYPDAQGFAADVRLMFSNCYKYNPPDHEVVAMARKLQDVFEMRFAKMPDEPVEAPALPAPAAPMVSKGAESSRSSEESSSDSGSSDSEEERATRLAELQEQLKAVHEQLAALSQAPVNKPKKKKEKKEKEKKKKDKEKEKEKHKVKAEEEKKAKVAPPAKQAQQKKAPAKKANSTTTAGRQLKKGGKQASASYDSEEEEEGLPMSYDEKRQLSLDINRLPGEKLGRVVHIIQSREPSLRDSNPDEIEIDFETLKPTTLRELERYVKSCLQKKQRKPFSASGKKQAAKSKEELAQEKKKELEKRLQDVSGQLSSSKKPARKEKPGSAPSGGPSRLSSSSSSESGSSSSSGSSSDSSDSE
# [9] = species on record: Homo sapiens; assay: Inhibition of human p110alpha/p65alpha at 1 uM relative to control
# [10] = molecular target: PI3-kinase p110-alpha/p85-alpha (Homo sapiens) (UniProt P27986+P42336); assay: Inhibition of human p110alpha/p85alpha at 1 uM relative to control; assay type: protein-complex assay
# [11] = molecular target: PI3K p110 beta/p85 alpha (Homo sapiens) (UniProt P27986+P42338); assay: Inhibition of human p110beta/p85alpha at 1 uM relative to control; assay type: protein-complex assay
# [12] = molecular target: Phosphatidylinositol 5-phosphate 4-kinase type-2 alpha (Homo sapiens) (UniProt P48426); assay: Inhibition of human PIP4K2alpha at 1 uM relative to control
# Phosphatidylinositol 5-phosphate 4-kinase type-2 alpha (Homo sapiens), sequence (P48426 whole entry): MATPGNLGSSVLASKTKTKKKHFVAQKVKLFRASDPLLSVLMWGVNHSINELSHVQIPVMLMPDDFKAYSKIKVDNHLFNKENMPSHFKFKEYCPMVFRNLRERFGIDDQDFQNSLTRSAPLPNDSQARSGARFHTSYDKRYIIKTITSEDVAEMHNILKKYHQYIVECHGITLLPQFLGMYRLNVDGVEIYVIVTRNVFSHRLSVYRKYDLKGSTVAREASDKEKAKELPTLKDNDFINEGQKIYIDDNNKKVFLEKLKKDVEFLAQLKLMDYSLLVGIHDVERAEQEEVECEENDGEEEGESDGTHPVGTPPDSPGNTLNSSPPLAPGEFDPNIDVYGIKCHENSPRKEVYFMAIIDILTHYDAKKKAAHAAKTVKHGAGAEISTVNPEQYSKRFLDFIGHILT
# [13] = test system: HUVEC; assay: Cytotoxicity against HUVEC cells assessed as effect on cell proliferation at 5 to 20 uM incubated for 72 hrs by Celltiter-luminescence analysis; assay type: toxicity, cell-based; settings: human, dose 5-20 µM
# [14] = test system: WI-38; assay: Cytotoxicity against human WI-38 cells assessed as effect on cell proliferation at 5 to 20 uM incubated for 72 hrs by Celltiter-luminescence analysis; assay type: toxicity, cell-based; settings: wi-38, 72 h, dose 5-20 µM
# [15] = test system: SUD4; assay: Cell cycle arrest in human SU-DHL-4 cells assessed as accumulation of cells at S phase incubated for 12 hrs by PI staining based flow cytometric analysis; assay type: functional; settings: dose 0.25-1 µM
# [16] = test system: SU-DHL-6; assay: Cell cycle arrest in human SU-DHL-6 cells assessed as accumulation of cells at S phase incubated for 12 hrs by PI staining based flow cytometric analysis; assay type: functional; settings: dose 0.25-1 µM
# [17] = test system: SUD4; assay: Induction of apoptosis in human SU-DHL-4 cells assessed as late apoptotic cells at 0.25 uM incubated for 24 hrs by Annexin V-FITC/PI staining based flow cytometric analysis (reference value: 6.74 %); assay type: functional
# [18] = test system: SUD4; assay: Induction of apoptosis in human SU-DHL-4 cells assessed as viable cells at 0.5 uM incubated for 24 hrs by Annexin V-FITC/PI staining based flow cytometric analysis (reference value: 65.2 %); assay type: functional; settings: read-out: Activity
# [19] = test system: SUD4; assay: Induction of apoptosis in human SU-DHL-4 cells assessed as necrotic cells at 0.5 uM incubated for 24 hrs by Annexin V-FITC/PI staining based flow cytometric analysis (reference value: 0.642 %); assay type: functional
# [20] = test system: SUD4; assay: Induction of apoptosis in human SU-DHL-4 cells assessed as viable cells at 1 uM incubated for 24 hrs by Annexin V-FITC/PI staining based flow cytometric analysis (reference value: 65.2 %); assay type: functional; settings: read-out: Activity
# [21] = test system: SU-DHL-6; assay: Induction of apoptosis in human SU-DHL-6 cells assessed as viable cells at 0.25 uM incubated for 24 hrs by Annexin V-FITC/PI staining based flow cytometric analysis (reference value: 61.2 %); assay type: functional; settings: read-out: Activity
# [22] = test system: SU-DHL-6; assay: Induction of apoptosis in human SU-DHL-6 cells assessed as viable cells at 0.5 uM incubated for 24 hrs by Annexin V-FITC/PI staining based flow cytometric analysis (reference value: 61.2 %); assay type: functional; settings: read-out: Activity
# [23] = test system: SU-DHL-6; assay: Induction of apoptosis in human SU-DHL-6 cells assessed as late apoptotic cells at 0.5 uM incubated for 24 hrs by Annexin V-FITC/PI staining based flow cytometric analysis (reference value: 6.43 %); assay type: functional
# [24] = test system: SU-DHL-6; assay: Induction of apoptosis in human SU-DHL-6 cells assessed as necrotic cells at 0.5 uM incubated for 24 hrs by Annexin V-FITC/PI staining based flow cytometric analysis (reference value: 0.246 %); assay type: functional
# [25] = test system: SU-DHL-6; assay: Induction of apoptosis in human SU-DHL-6 cells assessed as early apoptotic cells at 1 uM incubated for 24 hrs by Annexin V-FITC/PI staining based flow cytometric analysis (reference value: 32.1 %); assay type: functional
# [26] = test system: SU-DHL-4; assay: Inhibition of AKT phosphorylation in human SU-DHL-4 cells at 0.25 to 1 uM incubated for 12 hrs by Western blot analysis; assay type: cell-based; settings: dose 0.25-1 µM
# [27] = molecular target: Glycogen synthase kinase-3 beta (Homo sapiens) (UniProt P49841); assay: Inhibition of GSK-3beta phosphorylation in human SU-DHL-6 cells incubated for 12 hrs by Western blot analysis; assay type: cell-based; settings: dose 0.25-1 µM
# Glycogen synthase kinase-3 beta (Homo sapiens), sequence (P49841 whole entry, looked up): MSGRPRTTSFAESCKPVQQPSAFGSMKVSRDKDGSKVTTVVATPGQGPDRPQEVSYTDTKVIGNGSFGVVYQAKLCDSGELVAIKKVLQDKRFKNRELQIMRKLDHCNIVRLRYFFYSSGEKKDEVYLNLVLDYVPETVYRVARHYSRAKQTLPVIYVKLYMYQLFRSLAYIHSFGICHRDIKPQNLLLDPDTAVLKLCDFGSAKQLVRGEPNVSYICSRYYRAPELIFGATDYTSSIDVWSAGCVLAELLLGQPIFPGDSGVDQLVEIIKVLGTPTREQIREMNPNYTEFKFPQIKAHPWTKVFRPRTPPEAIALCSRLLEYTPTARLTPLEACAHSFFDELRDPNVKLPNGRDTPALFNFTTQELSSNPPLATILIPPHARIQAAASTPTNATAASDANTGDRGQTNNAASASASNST
# [28] = test system: SUD4; assay: Downregulation of c-Myc expression in human SU-DHL-4 cells at 0.25 to 1 uM incubated for 12 hrs by Western blot analysis; assay type: functional, cell-based; settings: dose 0.25-1 µM
# [29] = Tmax in female BALB/c mouse at 1 mg/kg, iv measured after 12 hrs by LC-MS/MS analysis; assay type: ADME, organism-based; settings: in vivo
# [30] = AUC (0 to t) in female BALB/c mouse at 1 mg/kg, iv measured after 12 hrs by LC-MS/MS analysis; assay type: ADME, organism-based; settings: in vivo
# [31] = Clearance in female BALB/c mouse at 1 mg/kg, iv measured after 12 hrs by LC-MS/MS analysis; assay type: ADME, organism-based; settings: in vivo
# [32] = Cmax in female BALB/c mouse at 20 mg/kg, po measured after 24 hrs by LC-MS/MS analysis; assay type: ADME, organism-based; settings: in vivo
# [33] = AUC (0 to t) in female BALB/c mouse at 20 mg/kg, po measured after 24 hrs by LC-MS/MS analysis; assay type: ADME, organism-based; settings: in vivo
# [34] = Oral bioavailability in female BALB/c mouse at 20 mg/kg measured after 24 hrs by LC-MS/MS analysis; assay type: ADME, organism-based; settings: in vivo
# [35] = test system: SU-DHL-6; assay: Antitumor activity against human SU-DHL-6 cells xenografted in female BALB/c mouse model assessed as reduction in c-Myc level in tumor at 20 mg/kg, po administered once daily via gavage for 15 days by Western blot analysis; assay type: functional, organism-based; settings: time 15.0 day
compound,measurement,setting,value
Cn1cc(-c2nc(N3CCOCC3)c3sc(CN4CCC(C(C)(C)O)CC4)cc3n2)c2cc[nH]c2c1=O,inhibition,[1],33.7%
same,IC50,[2],112 nM
same,IC50,[3],19 nM
same,IC50,[4],61 nM
same,IC50,[5],4750 nM
same,IC50,[6],915 nM
same,IC50,[7],> 10000 nM
same,IC50,[8],32 nM
same,inhibition,[9],41.9%
same,inhibition,[10],41%
same,inhibition,[11],44.3%
same,inhibition,[12],0.3%
same,Activity,[13],Non-toxic
same,Activity,[14],Non-toxic
same,Activity,[15],Dose-dependent-effect
same,Activity,[16],Dose-dependent-effect
same,Activity,[17],12.6%
same,viability at 0.5 µM,[18],49.1%
same,Activity,[19],2.8%
same,viability at 1 µM,[20],28.1%
same,viability at 0.25 µM,[21],53.7%
same,viability at 0.5 µM,[22],49.7%
same,Activity,[23],7.86%
same,Activity,[24],0.67%
same,Activity,[25],48.9%
same,inhibition,[26],Active
same,inhibition,[27],Dose-dependent-effect
same,Activity,[28],Active
same,Tmax,[29],1.98 min
same,AUC(0-t) at 12 h,[30],145 ng·h/mL
same,clearance,[31],112 mL/min/kg
same,Cmax,[32],228 ng/mL
same,AUC(0-t) at 24 h,[33],2190 ng·h/mL
same,bioavailability,[34],74.8%
same,Activity,[35],Active
